Experimental data: patent publication US20230226056A1, “[…] FOR PREVENTING OR TREATING SARS-COV-2 INFECTIONS” (priority 2020, published 2023)
“Also recorded” adds a separate entry of the source.

Experiments:
[1] = biological target: T1, SARS-CoV-2 Spike S1 protein binding to ACE2-expressing A549 cells (Severe acute respiratory syndrome coronavirus 2, UniProt P0DTC2); format: cell-based
T1 construct: the HIS-tagged SARS-Cov2-S1 protein is added to each tube; ACE2: endogenous in A549 cells (ATCC)

[2] = Osmolarity of ectoine solution; format: physicochemical
From the text: An isotonic NaCl solution of 0.9% has an osmolar activity of 286 mOsmol/kg H2O. A 2% ectoine solution has an osmolarity of 147 mOsmol/kg H2O. An isotonic ectoine solution thus has a concentration of 3.89%.

[3] = Oral toxicity; format: in vivo
[4] = Maximum solubility of ectoine; format: physicochemical
From the text: For a maximally saturated solute solution, concentrations that are just below the solubility limit of the respective solute are preferred. Such a highly concentrated solute solution can be used as a starting solution to prepare the solution required on site. In this way, individual solutions can be diluted depending on the administration required, the patient's condition (existing conditions, age, etc.) and/or desired therapy. This is especially beneficial when not differently concentrated solutions can be stored.

[5] = Plasma concentration after oral ectoine in rats; format: in vivo; settings: 1000 mg/kg

CC(=O)NCC[C@H](N)C(=O)O [NADA, Nγ-Acetyl-L-2,4-diaminobutyric acid, reference compound]
Median (background-subtracted fluorescence, Mann Whitney test) [1]: 1.820, n = 4
effect on Cov2 S1 protein binding to A549 cells [1]: no effect
effect on the binding between Cov2 S1 and the A549 cells [1]: No effect
inhibition of the binding of the Cov2 S1 protein to A549 cells [1]: no inhibition; also recorded: little inhibition; also recorded: no significant effect
inhibitory effect on Cov2 S1 binding [1]: comparable to untreated cells

CC1=N[C@H](C(=O)O)CCN1 [ectoine, (4S)-2-Methyl-1,4,5,6-tetrahydropyrimidine-4-carbon acid]
Median (background-subtracted fluorescence, Mann Whitney test) [1]: 0.3050, n = 4
bound viral Cov2 S1 protein on the cell surface [1]: less or no bound viral Cov2 S1 protein
fluorescence of the Cov2 S1 protein bound to A549 cells [1]: lower fluorescence
inhibition of the binding of the Cov2 S1 protein to A549 cells [1]: complete inhibition; also recorded: positive effect
inhibitory effect on Cov2 S1 binding [1]: significant
osmolarity ([2]; 2% ectoine solution): 147 mOsmol/kg H2O
concentration of an isotonic ectoine solution ([2]; relative to isotonic 0.9% NaCl, 286 mOsmol/kg H2O): 3.89%
NOAL [3]: 2000 mg/kg body weight/day
maximum solubility ([4]; 25° C.): about 550 g/L
maximum solubility ([4]; 40° C.): about 620 g/L
plasma concentration [5]: 99 µg/mL
